Usually IC50 stands for the concentration needed to halve the response being measured.

SMILES strings stand for the structures. Bridge positions count the residues as written; N and C are the ends. Square brackets hold non-standard residues; d marks the D form. Peptide text beside a SMILES is read from it. Nle = CCCC[C@H](N)C(=O)O Some results are limits rather than exact numbers.

Holding throughout (test): cell-based
Test [1] deals with T1, human Kv1.3 voltage-gated K+ channel (Homo sapiens, UniProt P22001).
T1 construct: host or cells: CHO-DUKX
T1 sequence (P22001 whole entry): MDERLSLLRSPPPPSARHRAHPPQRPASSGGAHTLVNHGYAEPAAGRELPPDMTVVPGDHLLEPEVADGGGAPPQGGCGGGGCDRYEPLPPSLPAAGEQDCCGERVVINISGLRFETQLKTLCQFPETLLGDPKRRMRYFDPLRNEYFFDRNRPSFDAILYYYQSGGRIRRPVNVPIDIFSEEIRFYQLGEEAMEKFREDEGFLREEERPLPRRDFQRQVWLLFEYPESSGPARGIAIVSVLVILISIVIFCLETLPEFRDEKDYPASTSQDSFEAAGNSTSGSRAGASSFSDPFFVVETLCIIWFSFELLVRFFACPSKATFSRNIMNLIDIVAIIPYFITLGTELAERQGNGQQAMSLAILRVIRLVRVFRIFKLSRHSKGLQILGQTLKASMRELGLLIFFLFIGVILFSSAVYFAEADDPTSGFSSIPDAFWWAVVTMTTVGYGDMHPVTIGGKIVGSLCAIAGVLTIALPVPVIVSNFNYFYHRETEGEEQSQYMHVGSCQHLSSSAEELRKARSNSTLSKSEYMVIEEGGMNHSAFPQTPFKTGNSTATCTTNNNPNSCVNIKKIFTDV
The following applies: inhibition of thallium flux, CHO-DUKX cells with human Kv1.3; read-out: IC50.

The target of the next test is T2, Kv1.3 (Homo sapiens, UniProt P22001).
T2 construct: expressed in transfected cells; host or cells: Chinese Hamster Ovary (CHO)
T2 sequence (P22001 whole entry): as above
As to conditions: CHO cells, whole-cell patch clamp; read-out: Potency IC50 (nM) Kv1.3. Background: Patch clamp records ionic current or voltage across a cell membrane.

For the next test, the target named is T3, Kv1.2 (Homo sapiens, UniProt P16389).
T3 construct: expressed in transfected cells; host or cells: Chinese Hamster Ovary (CHO)
T3 sequence (P16389 whole entry): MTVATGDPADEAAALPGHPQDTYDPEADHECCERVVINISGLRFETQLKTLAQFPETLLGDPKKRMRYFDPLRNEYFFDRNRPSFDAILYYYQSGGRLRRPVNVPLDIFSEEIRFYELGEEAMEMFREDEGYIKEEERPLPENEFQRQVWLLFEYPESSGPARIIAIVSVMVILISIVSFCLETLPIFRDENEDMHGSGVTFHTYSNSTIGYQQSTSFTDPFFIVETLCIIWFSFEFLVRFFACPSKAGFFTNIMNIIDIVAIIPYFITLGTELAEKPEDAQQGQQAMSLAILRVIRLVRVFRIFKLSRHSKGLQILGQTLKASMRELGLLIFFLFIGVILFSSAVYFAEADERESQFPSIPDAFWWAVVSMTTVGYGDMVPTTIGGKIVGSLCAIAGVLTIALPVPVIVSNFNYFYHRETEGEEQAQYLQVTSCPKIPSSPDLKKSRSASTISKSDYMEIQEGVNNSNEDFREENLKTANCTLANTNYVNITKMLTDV
The following applies: CHO cells, whole-cell patch clamp; read-out: Potency IC50 (nM) Kv1.2.

The target in another test is T4, Kv1.6 (Homo sapiens, UniProt P17658).
T4 construct: expressed in transfected cells; host or cells: Chinese Hamster Ovary (CHO)
T4 sequence (P17658 whole entry): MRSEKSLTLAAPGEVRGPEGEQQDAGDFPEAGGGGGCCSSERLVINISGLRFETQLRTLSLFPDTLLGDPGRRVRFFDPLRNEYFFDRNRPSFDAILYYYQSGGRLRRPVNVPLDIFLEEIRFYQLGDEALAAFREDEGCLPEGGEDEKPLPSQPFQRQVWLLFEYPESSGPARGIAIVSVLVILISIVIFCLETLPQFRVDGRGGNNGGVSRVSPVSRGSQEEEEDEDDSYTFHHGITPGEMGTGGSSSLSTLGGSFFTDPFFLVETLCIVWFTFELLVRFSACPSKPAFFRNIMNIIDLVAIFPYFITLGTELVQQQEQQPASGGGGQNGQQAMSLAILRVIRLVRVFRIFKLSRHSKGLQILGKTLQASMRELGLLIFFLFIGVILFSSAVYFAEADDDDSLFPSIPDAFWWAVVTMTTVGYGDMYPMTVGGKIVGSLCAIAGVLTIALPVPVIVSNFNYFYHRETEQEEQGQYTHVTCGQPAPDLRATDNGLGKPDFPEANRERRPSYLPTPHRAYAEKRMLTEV
As to conditions: for IC50: CHO cells, whole-cell patch clamp, read-out: Potency IC50 (nM) Kv1.6; for Selectivity Kv1.6/Kv1.3: ratio IC50[Kv1.6]/IC50[Kv1.3].

The target of the next test is T5, Kv1.1 (Homo sapiens, UniProt Q09470).
T5 construct: expressed in transfected cells; host or cells: Chinese Hamster Ovary (CHO)
T5 sequence (Q09470 whole entry): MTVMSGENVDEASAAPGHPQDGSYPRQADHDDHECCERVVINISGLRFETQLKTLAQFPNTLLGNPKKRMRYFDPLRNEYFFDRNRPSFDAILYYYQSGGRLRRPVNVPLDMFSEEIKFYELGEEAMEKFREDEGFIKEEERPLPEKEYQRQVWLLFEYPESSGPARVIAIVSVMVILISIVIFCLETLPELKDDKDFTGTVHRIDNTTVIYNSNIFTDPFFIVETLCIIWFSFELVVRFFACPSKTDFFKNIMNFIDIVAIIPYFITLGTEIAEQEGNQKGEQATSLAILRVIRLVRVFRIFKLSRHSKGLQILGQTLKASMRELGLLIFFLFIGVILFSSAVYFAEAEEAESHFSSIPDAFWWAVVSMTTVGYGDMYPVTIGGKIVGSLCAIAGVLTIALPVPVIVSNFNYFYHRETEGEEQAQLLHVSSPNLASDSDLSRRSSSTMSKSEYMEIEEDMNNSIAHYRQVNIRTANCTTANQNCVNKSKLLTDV
The following applies: for IC50: CHO cells, whole-cell patch clamp, read-out: Potency IC50 (nM) Kv1.1; for Selectivity Kv1.1/Kv1.3: ratio IC50[Kv1.1]/IC50[Kv1.3].

Regarding `CC[C@H](C)[C@@H]1NC(=O)[C@H](C)NC(=O)[C@H](CCCCN)NC(=O)[C@H](CC(C)C)NC(=O)[C@@H]2CSSC[C@@H](C(=O)N[C@@H](Cc3ccc(O)cc3)C(=O)N3CCC[C@H]3C(=O)N[C@@H](CCCNC(=N)N)C(N)=O)NC(=O)[C@H](CCCCN)NC(=O)[C@@H]3CSSC[C@H](NC(=O)[C@H](CCC(=O)O)NC(=O)[C@H](C(C)C)NC(=O)[C@H](CO)NC(=O)[C@H](C)NC(=O)[C@H](CO)NC(=O)[C@@H](NC(=O)[C@H](CCCNC(=N)N)NC(=O)[C@H](CCSC)NC(=O)[C@H](CC(=O)O)NC(=O)[C@H](CCSC)NC(=O)[C@@H](N)CC(N)=O)CSSC[C@H](NC(=O)[C@H](CCCCN)NC(=O)CNC(=O)[C@H](Cc4ccccc4)NC(=O)[C@H]([C@@H](C)CC)NC(=O)[C@H](CO)NC(=O)CNC1=O)C(=O)N[C@@H](CCSC)C(=O)N[C@@H](CC(N)=O)C(=O)N[C@@H](CCCCN)C(=O)N[C@@H](CCCCN)C(=O)N3)C(=O)N[C@@H](CCCCN)C(=O)N[C@@H](CCC(N)=O)C(=O)N[C@@H](CC(C)C)C(=O)N2` [Compound 18] (H-NMDMRCSASVECKQLCLKAIGSIFGKCMNKKCKCYPR-NH2; disulfide 6-27, 12-32, 16-34), the half-maximal inhibitory concentration (IC50) in test [1] was 0.19 nM; on Kv1.3 it was 0.24 nM; on Kv1.2, 256 nM; at Kv1.6 it was more than 3000 nM; at Kv1.1 it was more than 3000 nM. Besides, the “Selectivity Kv1.6/Kv1.3” value at Kv1.6 is given as more than 12700. The “Selectivity Kv1.1/Kv1.3” value at Kv1.1 is reported as more than 12700.
With `CC[C@H](C)[C@@H]1NC(=O)[C@H](C)NC(=O)[C@H](CCCCN)NC(=O)[C@H](CC(C)C)NC(=O)[C@@H]2CSSC[C@@H](C(=O)N[C@@H](Cc3ccc(O)cc3)C(=O)N3CCC[C@H]3C(=O)N[C@@H](CCCNC(=N)N)C(N)=O)NC(=O)[C@H](CCCCN)NC(=O)[C@@H]3CSSC[C@H](NC(=O)[C@H](CCC(=O)O)NC(=O)[C@H](C(C)C)NC(=O)[C@H](CO)NC(=O)[C@H](C)NC(=O)[C@H](CO)NC(=O)[C@@H](NC(=O)[C@H](CCCNC(=N)N)NC(=O)[C@H](CCSC)NC(=O)[C@H](CC(=O)O)NC(=O)[C@H](CCSC)NC(=O)[C@@H](N)CC(N)=O)CSSC[C@H](NC(=O)[C@H](CCCCN)NC(=O)CNC(=O)[C@H](Cc4ccccc4)NC(=O)[C@H]([C@@H](C)CC)NC(=O)[C@H](CO)NC(=O)[C@H](CCC(=O)O)NC1=O)C(=O)N[C@@H](CCSC)C(=O)N[C@@H](CC(N)=O)C(=O)N[C@@H](CCCCN)C(=O)N[C@@H](CCCCN)C(=O)N3)C(=O)N[C@@H](CCCCN)C(=O)N[C@@H](CCC(N)=O)C(=O)N[C@@H](CCCCN)C(=O)N2` [Compound 22] (H-NMDMRCSASVECKQKCLKAIESIFGKCMNKKCKCYPR-NH2; disulfide 6-27, 12-32, 16-34), the half-maximal inhibitory concentration (IC50) is 0.11 nM in test [1]; 0.29 nM at Kv1.3; 181 nM at Kv1.2; more than 3000 nM at Kv1.6; more than 3000 nM at Kv1.1. The “Selectivity Kv1.6/Kv1.3” value on Kv1.6 is on record as more than 10200. At Kv1.1, the “Selectivity Kv1.1/Kv1.3” value is more than 10200.
Regarding `CC[C@H](C)[C@@H]1NC(=O)[C@H](C)NC(=O)[C@H](CCCCN)NC(=O)[C@H](CC(C)C)NC(=O)[C@@H]2CSSC[C@@H](C(=O)N[C@@H](Cc3ccc(O)cc3)C(=O)N3CCC[C@H]3C(=O)N[C@@H](CCCNC(=N)N)C(N)=O)NC(=O)[C@H](CCCCN)NC(=O)[C@@H]3CSSC[C@H](NC(=O)[C@H](CCC(=O)O)NC(=O)[C@H](C(C)C)NC(=O)[C@H](CO)NC(=O)[C@H](C)NC(=O)[C@H](CCCCN)NC(=O)[C@@H](NC(=O)[C@H](CCCNC(=N)N)NC(=O)[C@H](CCSC)NC(=O)[C@H](CC(=O)O)NC(=O)[C@H](CCSC)NC(=O)[C@@H](N)CC(N)=O)CSSC[C@H](NC(=O)[C@H](CCCCN)NC(=O)CNC(=O)[C@H](Cc4ccccc4)NC(=O)[C@H]([C@@H](C)CC)NC(=O)[C@H](CO)NC(=O)CNC1=O)C(=O)N[C@@H](CCSC)C(=O)N[C@@H](CC(N)=O)C(=O)N[C@@H](CCCCN)C(=O)N[C@@H](CCCCN)C(=O)N3)C(=O)N[C@@H](CCCCN)C(=O)N[C@@H](CCC(N)=O)C(=O)N[C@@H](CCCCN)C(=O)N2` [Compound 25] (H-NMDMRCKASVECKQKCLKAIGSIFGKCMNKKCKCYPR-NH2; disulfide 6-27, 12-32, 16-34), the IC50 was 0.085 nM in test [1]; 0.09 nM on Kv1.3; 67 nM on Kv1.2; 363 nM at Kv1.6; more than 3000 nM at Kv1.1. At Kv1.1, the “Selectivity Kv1.1/Kv1.3” value is more than 34200.
Consider `CC[C@H](C)[C@@H]1NC(=O)[C@H](C)NC(=O)[C@H](CCCCN)NC(=O)[C@H](CC(C)C)NC(=O)[C@@H]2CSSC[C@@H](C(=O)N[C@@H](Cc3ccc(O)cc3)C(=O)N3CCC[C@H]3C(=O)N[C@@H](CCCNC(=N)N)C(N)=O)NC(=O)[C@H](CCCCN)NC(=O)[C@@H]3CSSC[C@H](NC(=O)[C@H](CCC(=O)O)NC(=O)[C@H](C(C)C)NC(=O)[C@H](CO)NC(=O)[C@H](C)NC(=O)[C@H](CO)NC(=O)[C@@H](NC(=O)[C@H](CCCNC(=N)N)NC(=O)[C@H](CCSC)NC(=O)[C@H](CC(=O)O)NC(=O)[C@H](CCSC)NC(=O)[C@@H](N)CC(N)=O)CSSC[C@H](NC(=O)[C@H](CCCCN)NC(=O)CNC(=O)[C@H](Cc4ccccc4)NC(=O)[C@H](CCCCN)NC(=O)[C@H](CO)NC(=O)CNC1=O)C(=O)N[C@@H](CCSC)C(=O)N[C@@H](CC(N)=O)C(=O)N[C@@H](CCCCN)C(=O)N[C@@H](CCCCN)C(=O)N3)C(=O)N[C@@H](CCCCN)C(=O)N[C@@H](CCC(N)=O)C(=O)N[C@@H](CCCCN)C(=O)N2` [Compound 34] (H-NMDMRCSASVECKQKCLKAIGSKFGKCMNKKCKCYPR-NH2; disulfide 6-27, 12-32, 16-34), for which the half-maximal inhibitory concentration (IC50) in test [1] was 0.11 nM; at Kv1.3, 0.42 nM; on Kv1.2, 100 nM; at Kv1.6, 207 nM; at Kv1.1, more than 3000 nM. Also, on Kv1.1, the “Selectivity Kv1.1/Kv1.3” value is more than 7100.
As for `CC[C@H](C)[C@@H]1NC(=O)[C@H](C)NC(=O)[C@H](CCCCN)NC(=O)[C@H](CC(C)C)NC(=O)[C@@H]2CSSC[C@@H](C(=O)N[C@@H](Cc3ccc(O)cc3)C(=O)N3CCC[C@H]3C(=O)N[C@@H](CCCNC(=N)N)C(N)=O)NC(=O)[C@H](CCCCN)NC(=O)[C@@H]3CSSC[C@H](NC(=O)[C@H](CCC(=O)O)NC(=O)[C@H](C(C)C)NC(=O)[C@H](CO)NC(=O)[C@H](C)NC(=O)[C@H](CO)NC(=O)[C@@H](NC(=O)[C@H](CCCNC(=N)N)NC(=O)[C@H](CCSC)NC(=O)[C@H](CC(=O)O)NC(=O)[C@H](CCSC)NC(=O)[C@@H](N)CC(N)=O)CSSC[C@H](NC(=O)[C@H](CCCCN)NC(=O)CNC(=O)[C@H](Cc4ccccc4)NC(=O)[C@H]([C@@H](C)CC)NC(=O)[C@H](CO)NC(=O)CNC1=O)C(=O)N[C@@H](CCSC)C(=O)N[C@@H](CC(N)=O)C(=O)NCC(=O)N[C@@H](CCCCN)C(=O)N3)C(=O)N[C@@H](CCCCN)C(=O)N[C@@H](CCC(N)=O)C(=O)N[C@@H](CCCCN)C(=O)N2` [Compound 36] (H-NMDMRCSASVECKQKCLKAIGSIFGKCMNGKCKCYPR-NH2; disulfide 6-27, 12-32, 16-34), the IC50 in test [1] is 0.24 nM; on Kv1.3, 0.31 nM; on Kv1.2, 439 nM; on Kv1.6, more than 3000 nM; at Kv1.1, more than 3000 nM. In addition, the “Selectivity Kv1.6/Kv1.3” value on Kv1.6 is more than 9700. Moreover, the “Selectivity Kv1.1/Kv1.3” value on Kv1.1 is recorded as more than 9700.
Turning to `CCCC[C@@H]1NC(=O)[C@@H]2CSSC[C@H](NC(=O)[C@H](CCCNC(=N)N)NC(=O)[C@H](CCCC)NC(=O)[C@H](CC(=O)O)NC(=O)[C@H](CCCC)NC(=O)[C@@H](N)CC(N)=O)C(=O)N[C@@H](CO)C(=O)N[C@@H](C)C(=O)N[C@@H](CO)C(=O)N[C@@H](C(C)C)C(=O)N[C@@H](CCC(=O)O)C(=O)N[C@H]3CSSC[C@H](NC(=O)[C@H](CCCCN)NC(=O)[C@H](CCCCN)NC(=O)[C@H](CC(N)=O)NC1=O)C(=O)N[C@@H](CCCCN)C(=O)N[C@H](C(=O)N[C@@H](Cc1ccc(O)cc1)C(=O)N1CCC[C@H]1C(=O)N[C@@H](CCCNC(=N)N)C(N)=O)CSSC[C@H](NC(=O)[C@H](CCCCN)NC(=O)[C@H](CCC(N)=O)NC(=O)[C@H](CCCCN)NC3=O)C(=O)N[C@@H](CC(C)C)C(=O)N[C@@H](CCCCN)C(=O)N[C@@H](C)C(=O)N[C@@H]([C@@H](C)CC)C(=O)NCC(=O)N[C@@H](CO)C(=O)N[C@@H]([C@@H](C)CC)C(=O)N[C@@H](Cc1ccccc1)C(=O)NCC(=O)N[C@@H](CCCCN)C(=O)N2` [Compound 40] (H-N[Nle]D[Nle]RCSASVECKQKCLKAIGSIFGKC[Nle]NKKCKCYPR-NH2; disulfide 6-27, 12-32, 16-34), the IC50 is 0.1 nM in test [1]; 0.26 nM on Kv1.3; 113 nM on Kv1.2; 1830 nM at Kv1.6; more than 3000 nM on Kv1.1. On Kv1.1, the “Selectivity Kv1.1/Kv1.3” value was more than 11600.
